Reference: patent US3969530A, “4-Hydroxy-3,5-di-alkyl-phenyl-propionic acid composition suitable as lipid lowering and anti-diabetic agents” (Hoechst Aktiengesellschaft, priority 1972, dated 1976)

Assays:
serum lipid values = test: Reduction of serum lipid values in normolipemic rats (Table 1); assay type: in vivo, male rats; details: 8 doses; for Change in percentage of serum triglyceride, column B / Change in percentage of serum cholesterol, column B: B: referred to untreated control group; for Change in percentage of serum cholesterol, column A / Change in percentage of serum triglyceride, column A: A: referred to the initial value of the treated group
Method: 1. Male rats having a normal serum lipid content were being treated for eight days with different daily doses mentioned in Table 1. The values given in that Table stand for a change in the serum concentrations of certain lipid classes.
The doses were administered per os by means of an esophagal sound. Generally, prior to and after the treatment, blood samples were taken and the concentration of cholesterol in the serum was determined according to the method of Lauber and Richterich and that of triglycerides according to the method of Eggstein and Kreutz. In the examples of the following Table 1, the changes in the serum lipid values due to the treatment with the substances of the invention are defined as follows:
a. The changes in percent in the final value of the treated group, referred to the initial value of the treated group, the initial value being 100 per cent, and
b. the change in the final value of the treated group, referred to the final value of an accompanying untreated control group, the untreated group's value being defined as 100 %. Thus, the value given in columns A is the change in percentage referred to the initial value, the value given in columns B is the change in percentage of the treated group, referred to the untreated control group.

in vivo = details: mouse, po, male mice
blood sugar level [1] = test: Blood sugar level in alloxan-diabetic male rats; assay type: in vivo; details: 100 mg/kg/day per os, 8 days, 20 hours after the last administration, vs untreated group; insulin-substituted
Method: (§1) The hypoglycemic activity had been established as follows, the blood sugar level having been determined by means of an autoanalyzer:
1. On alloxan-diabetic male rats substituted with insulin before the beginning of the test, that were offered food ad libitum, 100 mg/kg/day of 4-hydroxy-3,5-di-t.-butyl-phenylpropionic acid n-octadecyl ester administered per os once a day during 8 successive days lowered the blood sugar level 20 hours after the last administration by -18% as compared with an untreated group.

blood sugar level [2] = test: Tolerance test with oral glucose in fasted male rats; assay type: in vivo
Method: as §1
2. In the tolerance test with glucose doses administered per os to male rats that had fasted for 22 hours and that were administered 19 and 3 hours before the glucose administration (1g/kg) per os 100 mg/kg of the test preparation, 4-hydroxy-3,5-di-t.-butyl-phenyl-propionic acid n-octadecyl ester caused a lowering of the blood sugar level by -21% 3 hours after being fed with glucose.

blood sugar level [3] = test: Blood sugar level in male rats fed fructose doses; assay type: in vivo; details: 100 mg/kg/day, 3 days pretreatment, 24 hours after the last administration; fructose doses per os
Method: as §1
In the case of male rats having been feed fructose doses per os and pretreated for 3 days with 100 mg/kg/day of the same compound, the blood sugar level was lowered by -17% 24 hours after the last administration.

[4] = tested on: serum lipid concentration; test: Dietetic-medicamentous hyperlipemia (hypercholesteremia) of male rats (Table 2); assay type: in vivo; details: 100 mg/kg/day, 8 doses, esophagal sound; hyperlipemic diet
From the text: 2. Dietetic-medicamentous hypercholesteremia of male rats
All the animals were fed with a diet food containing 2% of cholesterol, 2% of sodium cholate, 0.3% of methyl-thio-uracil, 20% of coco fat and 44% of cane sugar. The serum lipid concentration of the animals treated with the cited compounds was compared to that of an untreated control group being on the same diet which causes the serum cholesteral concentration to rise within one week to about 10 times the initial value, that of the serum triglycerides to 3 times and that of the phospholipids in the serum to 4 times the initial value. The lipid phosphorus was determined according to the method of Messrs. Boehringer Mannheim W. Germany. At the same time as the diet was offered the cited compounds were administered once a day to groups of rats, each containing 10 animals, over a period of 8 days by means of an esophagal sound. The change in percentage in the serum lipid concentration as compared to the control group (diet without active substance) is indicated in Table 2.

Row | Compound | Change in percentage of serum triglyceride, column B (serum lipid values; 10 mg/kg/day p.o.) [%] | Change in percentage of serum triglyceride, column B (serum lipid values; 30 mg/kg/day p.o.) [%] | Change in percentage of serum cholesterol, column A (serum lipid values; 100 mg/kg/day p.o.) [%] | Change in percentage of serum triglyceride, column A (serum lipid values; 100 mg/kg/day p.o.) [%] | Change in percentage of serum triglyceride, column B (serum lipid values; 100 mg/kg/day p.o.) [%] | Change in percentage of serum cholesterol, column B (serum lipid values; 100 mg/kg/day p.o.) [%] | LD50 (in vivo) [mg/kg] | lowering of the blood sugar level (blood sugar level [1]) [%] | lowering of the blood sugar level (blood sugar level [2]; 100 mg/kg per os 19 and 3 hours before glucose (1g/kg), 3 hours after glucose, fasted 22 hours) [%] | lowering of the blood sugar level compared with phenformin (blood sugar level [2]; 100 mg/kg per os, comparison preparation phenformin) | lowering of the blood sugar level (blood sugar level [3]) [%] | Change in percentage of serum cholesterol, column A (serum lipid values; 30 mg/kg/day p.o.) [%] | Change in percentage of serum triglyceride, column A (serum lipid values; 30 mg/kg/day p.o.) | Change in percentage of serum cholesterol, column B (serum lipid values; 30 mg/kg/day p.o.) [%] | Change in percentage of serum cholesterol referred to the untreated group [4] [%] | Change in percentage of serum triglyceride, column A (serum lipid values; 10 mg/kg/day p.o.) [%]
1 | CCCCOC(=O)CCc1cc(C(C)(C)C)c(O)c(C(C)(C)C)c1 [Example 6, 4-hydroxy-3,5-di-t.-butylphenyl-propionic acid-n-butyl ester] | -17 | -27 | -10 | -54 | -58 |  |  |  |  |  |  |  |  |  |  | 
2 | COC(=O)CCc1cc(C(C)(C)C)c(O)c(C(C)(C)C)c1 [Example 5, 4-hydroxy-3,5-di-t.-butylphenyl-propionic acid methyl ester] | -3 | -42 | -3 | -60 | -71 |  |  |  |  |  |  |  |  |  |  | 
3 | CC(C)(C)c1cc(CCC(=O)OCC(COC(=O)CCc2cc(C(C)(C)C)c(O)c(C(C)(C)C)c2)(COC(=O)CCc2cc(C(C)(C)C)c(O)c(C(C)(C)C)c2)COC(=O)CCc2cc(C(C)(C)C)c(O)c(C(C)(C)C)c2)cc(C(C)(C)C)c1O [Example 7, Tetra-(4-hydroxy-3,5-di-t.-butylphenyl-propionic acid)-pentaerythritol ester] |  | -27 | -5 |  | -17 | -7 |  |  |  |  |  |  |  |  |  | 
4 | CCCCCCCCCCCCCCCCCCOC(=O)CCc1cc(C(C)(C)C)c(O)c(C(C)(C)C)c1 [Example 3, 4-hydroxy-3,5-di-t.-butyl-phenyl-propionic acid-n-octadecyl ester] |  | -25 |  | -33 | -16 |  | 8000 | -18 | -21 | in the same order of magnitude as that obtained with the comparison preparation phenformin | -17 |  |  |  |  | 
5 | CCOC(=O)C(C)(C)Oc1ccc(Cl)cc1 [Clofibrat, reference compound] |  | -13 |  |  |  |  | 2000 to 2500 |  |  |  |  | -7 | +4% | -7 | 0 | 
6 | CC(C)(C)c1cc(CCC(=O)O)cc(C(C)(C)C)c1O [Example 2, 4-hydroxy-3,5-di-t.-butyl-phenyl-propionic acid] | -26 | -38 |  | -32 | -38 | -12 |  |  |  |  |  |  | -23% |  |  | -21
